tested on: ABCA1 mRNA; test: ABCA1 mRNA induction in THP-1 cells, QuantiGene branched DNA assay; type: cell-based; conditions: 10 μM test compound, 18-20 hours
Method: Modulation of expression of ABCA1 mRNA levels by the compounds of the invention was determined in the following assays.
Induction of ABC1 in THP-1 cells, was measured using QuantiGene® branched DNA assay as per manufacturer's instructions. Cultures of THP-1 were grown to subconfluence in DMEM/10% FBS before replacement with DMEM/BSA and 10 and 3 μM concentrations of the test compounds in DMSO for 18-20 hours. After treatment of cells with compounds, the cells were lysed with lysis buffer at 37° C. for 20 minutes. The cell lysate and ABCA1 specific probe (Genospectra, Inc., Fremont, Calif.) mix were added to the 96 well capture plate and hybridized at 53° C. for 16-18 hours. The signal was amplified using the amplifier and label probes provided with the QuantiGene® assay followed by addition of a luminescent alkaline phosphatase substrate, dioxitane. Luminescence was quantified in Victor V plate reader.
Step 1 • Cells are lysed to release mRNA in the presence of target probes. Target mRNA from lysed cells was then captured by hybridization and transferred to the Capture Plate.
Step 2 • Signal amplification was performed by hybridization of the bDNA Amplifier and Label Probe.
Step 3 • Addition of chemiluminescence substrate yielded a QuantiGene® signal proportional to the amount of mRNA present in the sample.
Table 1 presents the relative fold increase in ABCA1 expression over DMSO for various compounds of the invention when tested at a concentration of […].

SMILES | ABCA1 Induction Fold Increase over DMSO Vehicle
COc1cccc2c1[C@H]1Nc3ccc(-c4ccc(C(N)=O)cc4)cc3C(C)(C)[C@H]1CO2 [Number 108, 4-((12aS,6aR)-1-methoxy-7,7-dimethyl-7,12,12a,6a-tetrahydrochromano[4,3-b]quinolin-9-yl)benzamide] | 4.7 FOLD INCREASE
COc1cccc2c1[C@H]1Nc3ccc(-c4ccc(C(F)(F)F)cc4)cc3C(C)(C)[C@@H]1CO2 [Number 93, (12aS,6aS)-1-methoxy-7,7-dimethyl-9-[4-(trifluoromethyl)phenyl]-7,12,12a,6a-tetrahydrochromano[4,3-b]quinoline] | 6.8 FOLD INCREASE
COc1cccc2c1[C@H]1Nc3ccc(-c4nc(C(=O)N5CCS(=O)(=O)CC5)co4)cc3C(C)(C)[C@H]1CO2 [Number 148, 2-((6aR,12aS)-1-methoxy-6a,7,12,12a-tetrahydro-7,7-dimethyl-6H-chromeno[4,3-b]quinolin-9-yl)oxazole-(4-(1,1-dione-1,4-thiazaperhydroin-yl)methanone)] | 11 FOLD INCREASE
COc1cccc2c1OC[C@@H]1[C@H]2Nc2ccc(OC(F)(F)F)cc2C1(C)C [Number 52, ((6aS,12aR)-4-methoxy-7,7-dimethyl(7,12,12a,6a-tetrahydrochromano[4,3-b]quinolin-9-yloxy))trifluoromethane] | 9.5 FOLD INCREASE
COc1cc(-c2ccccc2)cc2c1OC[C@H]1[C@@H]2Nc2ccc(C(O)(C(F)(F)F)C(F)(F)F)cc2C1(C)C [Number 77, 2-((12aS,6aR)-4-methoxy-7,7-dimethyl-2-phenyl(7,12,12a,6a-tetrahydrochromano[4,3-b]quinolin-9-yl))-1,1,1,3,3,3-hexafluoropropan-2-ol] | 5.3 FOLD INCREASE
CCOc1ccc2c(c1)C(C)(C)[C@H]1COc3cccc(OC)c3[C@H]1N2 [Number 56, (12aS,6aR)-9-ethoxy-1-methoxy-7,7-dimethyl-7,12,12a,6a-tetrahydrochromano[4,3-b]quinoline] | 4.8 FOLD INCREASE
CCOc1cccc2c1OCC1C2Nc2ccc(C(F)(F)F)cc2C1(C)C (centres unmarked) [Number 41, 4-ethoxy-7,7-dimethyl-9-(trifluoromethyl)-7,12,12a,6a-tetrahydrochromano[4,3-b]quinoline] | 2.1 FOLD INCREASE
Cc1c(C(=O)N2CCS(=O)(=O)CC2)cnn1-c1ccc2c(c1)C(C)(C)[C@H]1COc3cccc(F)c3[C@H]1N2 [Number 145, 1-((6aR,12aS)-6a,7,12,12a-tetrahydro-1-fluoro-7,7-dimethyl-6H-chromeno[4,3-b]quinolin-9-yl)1-5-methyl-1H-pyrazole-4-((1,1-dione-1,4-thiazaperhydroin-yl)methanone)] | 4.5 FOLD INCREASE
COc1ccc(-c2ccc3c(c2)C(C)(C)[C@H]2COc4cccc(OC)c4[C@H]2N3)cc1 [Number 112, 1-((12aS,6aR)-1-methoxy-7,7-dimethyl(7,12,12a,6a-tetrahydrochromano[4,3-b]quinolin-9-yl))-4-methoxybenzene] | 1.7 FOLD INCREASE
COc1cccc2c1[C@H]1Nc3ccc(-c4ccc(S(N)(=O)=O)cc4)cc3C(C)(C)[C@@H]1CO2 [Number 97, 4-((12aS,6aS)-1-methoxy-7,7-dimethyl-7,12,12a,6a-tetrahydrochromano[4,3-b]quinolin-9-yl)benzenesulfonamide] | 5.7 FOLD INCREASE
CC1(C)c2cc(C(O)(C(F)(F)F)C(F)(F)F)ccc2NC2c3cc(OC(F)(F)F)ccc3OCC21 (centres unmarked) [Number 8, 2-[7,7-dimethyl-2-(trifluoromethoxy)(7,12,12a,6a-tetrahydrochromano[4,3-b]quinolin-9-yl)]-1,1,1,3,3,3-hexafluoropropan-2-ol] | 3.0 FOLD INCREASE
COc1cccc2c1C1Nc3ccc(-c4nncn4C)cc3C(C)(C)C1CO2 (centres unmarked) [Number 74, 1-methoxy-7,7-dimethyl-9-(4-methyl(1,2,4-triazol-3-yl))-7,12,12a,6a-tetrahydrochromano[4,3-b]quinoline] | 7.9 FOLD INCREASE
CCOc1cccc2c1OCC1C2Nc2ccc(C(C)=O)cc2C1(C)C (centres unmarked) [Number 42, 1-(4-ethoxy-7,7-dimethyl-7,12,12a,6a-tetrahydrochromano[4,3-b]quinolin-9-yl)ethan-1-one] | 3.8 FOLD INCREASE
CC1(C)c2cc(C(N)=O)ccc2NC2c3cccc(F)c3OCC21 (centres unmarked) [Number 50, 4-fluoro-7,7-dimethyl-7,12,12a,6a-tetrahydrochromano[4,3-b]quinoline-9-carboxamide] | 5.0 FOLD INCREASE
COc1cc(Br)cc2c1OC[C@@H]1[C@H]2Nc2ccc(C(O)(C(F)(F)F)C(F)(F)F)cc2C1(C)C [Number 65, 2-((6aS,12aR)-2-bromo-4-methoxy-7,7-dimethyl(7,12,12a,6a-tetrahydrochromano[4,3-b]quinolin-9-yl))-1,1,1,3,3,3-hexafluoropropan-2-ol] | 3.2 FOLD INCREASE
COc1cccc2c1[C@H]1Nc3ccc(Cc4nnn[nH]4)cc3C(C)(C)[C@H]1CO2 [Number 84, (12aS,6aR)-1-methoxy-7,7-dimethyl-9-(1,2,3,4-tetraazol-5-ylmethyl)-7,12,12a,6a-tetrahydrochromano[4,3-b]quinoline] | 8.6 FOLD INCREASE

same assay, conditions: Homo sapiens, 10 μM test compound, 18-20 hours, read-out: ABCA1 Induction Fold Increase over DMSO Vehicle

SMILES | fold induction at 10 µM
CCCN1c2ccccc2C(C)(C)[C@@H]2COc3cccc(OC)c3[C@H]21 [Number 173, (6aS,12aS)-12-propyl-6a,7,12,12a-tetrahydro-1-methoxy-7,7-dimethyl-6H-chromeno[4,3-b]quinoline] | 1.8
COc1cccc2c1[C@H]1Nc3ccc(C(=O)N(C)C)cc3C(C)(C)[C@H]1CO2 [Number 123, (6aR,12aS)-6a,7,12,12a-tetrahydro-1-methoxy-N,N,7,7-tetramethyl-6H-chromeno[4,3-b]quinoline-9-carboxamide] | 6.5
COC(=O)c1ccc2c(c1)C(C)(C)[C@H]1COc3cccc(OC)c3[C@H]1N2C [Number 153, (6aR,12aS)-methyl 6a,7,12,12a-tetrahydro-1-methoxy-7,7,12-trimethyl-6H-chromeno[4,3-b]quinoline-9-carboxylate] | 7.4
COC(=O)CCN1c2ccccc2C(C)(C)[C@H]2COc3cccc(OC)c3[C@@H]21 [Number 171, methyl 3-((6aR,12aR)-6a,7-dihydro-1-methoxy-7,7-dimethyl-6H-chromeno[4,3-b]quinolin-12(12aH)-yl)propanoate] | 2.2
COc1ccccc1-c1ccc2c(c1)C(C)(C)C1=C(c3cccc(F)c3OC1)N2O [Number 104, 4-fluoro-9-(2-methoxyphenyl)-7,7-dimethyl-7,12-dihydro-6H-chromeno[4,3-b]quinolin-12-ol] | 2.9
COc1cccc2c1[C@@H]1[C@H](CO2)C(C)(C)c2ccccc2N1CC(=O)O [Number 154, 2-((6aR,12aS)-6a,7-dihydro-1-methoxy-7,7-dimethyl-6H-chromeno[4,3-b]quinolin-12(12aH)-yl)acetic acid] | 9.4
COc1ccc2c(c1)C(C)(C)[C@H]1COc3cccc(OC)c3[C@H]1N2Cc1ccccc1 [Number 158, (6aR,12aS)-12-benzyl-6a,7,12,12a-tetrahydro-1,9-dimethoxy-7,7-dimethyl-6H-chromeno[4,3-b]quinoline] | 9.2

Reference: patent publication US7432276B2, “ABCA1 elevating compounds” (CV Therapeutics, Inc., priority 2005, dated 2008)
